# Results from ChEMBL document CHEMBL1154906, “Additional insights on the bastadins: isolation of analogues from the sponge Ianthella cf. reticulata and exploration of the oxime configurations” (J Nat Prod, 2010).
# Activity calls are given as the source filed them. No cut-off for these calls is given here.
# Tests used:
# [1] = tested on: Trypanosoma brucei brucei; experiment: Antitrypanosomal activity against Trypanosoma brucei brucei 221 after 48 hrs by ATP-bioluminescence assay; type: functional, organism-based; conditions: for IC50: Trypanosoma brucei, 221, 48 h
# [2] = tested on: HCT-116; experiment: Cytotoxicity against human HCT116 cells after 7 days by methylene blue staining; type: functional, cell-based
SMILES,Activity [1],Activity [2],further results
O=C(NCCc1ccc(O)c(Br)c1)/C(Cc1cc(Br)c(O)c(Oc2c(Br)cc(C/C(=N\O)C(=O)NCCc3ccc(O)c(Br)c3)cc2Br)c1)=N\O,inactive,–,–
O=C1N/C=C/c2ccc(c(Br)c2)Oc2cc(cc(Br)c2O)CCNC(=O)/C(=N/O)Cc2cc(Br)c(c(Br)c2)Oc2cc(cc(Br)c2O)C/C1=N\O [BASTADIN 4],inactive,–,"IC50 ([2]; HCT-116, 168 h): 1.28 µM"
O=C1NCCc2cc(Br)c(O)c(c2)Oc2ccc(cc2Br)CCNC(=O)/C(=N\O)Cc2cc(Br)c(O)c(c2)Oc2c(Br)cc(cc2Br)C/C1=N/O,inactive,inactive,–
O=C(NCCc1ccc(O)c(Br)c1)/C(Cc1cc(Br)c2c(c1)-c1cc(C/C(=N\O)C(=O)NCCc3ccc(O)c(Br)c3)cc(Br)c1OCO2)=N\O,–,inactive,–
O=C1NCCc2ccc(c(Br)c2)Oc2cc(cc(Br)c2O)CCNC(=O)/C(=N/O)Cc2cc(Br)c(O)c(c2)Oc2c(Br)cc(cc2Br)C/C1=N\O [BASTADIN 19],–,inactive,IC50 [1]: 1.31 µM
O=C1NCCc2cc(Br)c(O)c(c2)Oc2ccc(cc2)CCNC(=O)/C(=N/O)Cc2cc(Br)c(O)c(c2)Oc2c(Br)cc(cc2Br)C/C1=N\O,inactive,–,–
O=C1NCCc2cc(Br)c(O)c(c2)Oc2c(Br)cc(cc2Br)CCNC(=O)/C(=N/O)Cc2cc(Br)c(O)c(c2)Oc2c(Br)cc(cc2Br)C/C1=N\O,inactive,inactive,–
O=C1N/C=C/c2ccc(c(Br)c2)Oc2cc(cc(Br)c2O)CCNC(=O)/C(=N/O)Cc2ccc(c(Br)c2)Oc2cc(cc(Br)c2O)C/C1=N\O,inactive,–,–
O=C1NCCc2cc(Br)c(O)c(c2)Oc2ccc(cc2Br)[C@H](O)CNC(=O)/C(=N/O)Cc2cc(Br)c(O)c(c2)Oc2c(Br)cc(cc2Br)C/C1=N\O,inactive,–,–
O=C1NCCc2ccc(c(Br)c2)Oc2cc(cc(Br)c2O)CCNC(=O)/C(=N/O)Cc2cc(Br)c(O)c(c2)Oc2c(Br)cc(cc2Br)C/C1=N/O,–,inactive,–
O=C1NCCc2ccc(c(Br)c2)Oc2cc(ccc2O)CCNC(=O)/C(=N/O)Cc2cc(Br)c(O)c(c2)Oc2c(Br)cc(cc2Br)C/C1=N\O [BASTADIN 13],–,–,IC50 [1]: 1.77 µM
O=C(NCCc1ccc(O)c(Br)c1)/C(Cc1cc(Br)c(O)c(-c2cc(C/C(=N/O)C(=O)NCCc3ccc(O)c(Br)c3)cc(Br)c2O)c1)=N\O,–,inactive,–
